Experimental findings from patent US7868135B2, “Compositions of lipopeptide antibiotic derivatives and methods of use thereof” (priority 2003, dated 2011) are described below.

Starred links: 1 amine or outer side, 2 acyl side, 3 side chain; linkers in the order of their positions; H or OH if unused. Positions of bridges follow the written chain, without caps; N, C: chain ends. Non-standard residues stand in square brackets, D forms with d. Residues, ends and D or L forms follow the SMILES beside them. ξ: configuration not given here. *: point of attachment. Hexadecanesulfonyl = CCCCCCCCCCCCCCCCS(=O)(=O)*; ξAbu(βξ-NH2) = CC(N[*:3])C(N[*:1])C(=O)[*:2]; X36 = CC(NC(=O)CN(C)C)C(N[*:1])C(=O)[*:2]; Pentadecanoyl = CCCCCCCCCCCCCCC(=O)*; ξAsp(βξ-Me) = CC(C(=O)O)C(N)C(=O)O; Palmitoyl = CCCCCCCCCCCCCCCC(=O)*; X1 = O=C(Cc1ccc(N[*:1])cc1)[*:2]; ξAbu(3ξ-NH2) = CC(N)C(N)C(=O)O; Undecanoyl = CCCCCCCCCCC(=O)*; Lauroyl = CCCCCCCCCCCC(=O)*; Decanoyl = CCCCCCCCCC(=O)*; X19 = CCCCCCCCCCS(=O)(=O)*; 3Abz = Nc1cccc(C(=O)O)c1; Pip = O=C(O)[CH]1CCCCN1; ξD = NC(CC(=O)O)C(=O)O; ξPip = O=C(O)C1CCCCN1; ξV = CC(C)C(N)C(=O)O; ξP = O=C(O)C1CCCN1

As usually defined, the MIC is the lowest concentration that inhibits growth of the organism.

In the assay the test system is Staphylococcus aureus (MSSA). The following applies: 24 h. In a few lines: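 Broth microdilution MIC per NCCLS M7-A6 with doubling serial dilutions, in cation-adjusted Mueller-Hinton broth supplemented with 0.625 mM calcium.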
In the case of `CCCCCCCCCCCCCCC(=O)NC(CC(=O)O)C(=O)NC1C(=O)N2CCCCC2C(=O)NC(C(C)C(=O)O)C(=O)NC(CC(=O)O)C(=O)NCC(=O)NC(CC(=O)O)C(=O)NCC(=O)NC(C(C)NC(=O)CN(C)C)C(=O)NC(C(C)C)C(=O)N2CCCC2C(=O)NC1C` (stereo not drawn) [Compound 268, C15-Amphomycin-9-(N,N-Dimethylglycine)] (Pentadecanoyl-D[ξAbu(βξ-NH2)][Pip][ξAsp(βξ-Me)]DGDG[X36]VP; lactam 2-C; configuration not given here), the MIC was determined as 1 µg/mL.
On to `CCCCCCCCCCS(=O)(=O)NCC(=O)NC(CC(=O)O)C(=O)NC1C(=O)N2CCCCC2C(=O)NC(C(C)C(=O)O)C(=O)NC(CC(=O)O)C(=O)NCC(=O)NC(CC(=O)O)C(=O)NCC(=O)NC(C(C)N)C(=O)NC(C(C)C)C(=O)N2CCCC2C(=O)NC1C` (stereo not drawn) [Compound 269, CH3—(CH2)9—SO2-Gly-Amphomycin] (X19-GD[ξAbu(βξ-NH2)][Pip][ξAsp(βξ-Me)]DGDG[ξAbu(3ξ-NH2)]VP; lactam 3-C; configuration not given here), for which the MIC lay within 4 to 8 µg/mL.
Under `CCCCCCCCCCCCCCCCS(=O)(=O)N[C@@H](Cc1ccccc1)C(=O)NC(CC(=O)O)C(=O)NC1C(=O)N2CCCCC2C(=O)NC(C(C)C(=O)O)C(=O)NC(CC(=O)O)C(=O)NCC(=O)NC(CC(=O)O)C(=O)NCC(=O)NC(C(C)N)C(=O)NC(C(C)C)C(=O)N2CCCC2C(=O)NC1C` (stereo partly drawn) [Compound 270, CH3—(CH2)15—SO2-Phe-Amphomycin] (Hexadecanesulfonyl-F[ξD][ξAbu(βξ-NH2)][ξPip][ξAsp(βξ-Me)][ξD]G[ξD]G[ξAbu(3ξ-NH2)][ξV][ξP]; lactam 3-C) stands 16 to 32 µg/mL; under `CCCCCCCCCCCCCCNC(=O)NC(CC(=O)O)C(=O)NC1C(=O)N2CCCCC2C(=O)NC(C(C)C(=O)O)C(=O)NC(CC(=O)O)C(=O)NCC(=O)NC(CC(=O)O)C(=O)NCC(=O)NC(C(C)NC(=O)CNC(=O)[C@@H](N)CCCCN)C(=O)NC(C(C)C)C(=O)N2CCCC2C(=O)NC1C` (stereo partly shown) [Compound 277, CH3—(CH2)13—NH—C(═O)-Amphomycin-9-Gly-Lys], 0.5 to 1 µg/mL; under `CCCCCCCCCCCCCCNC(=O)NC(CC(=O)O)C(=O)NC1C(=O)N2CCCCC2C(=O)NC(C(C)C(=O)O)C(=O)NC(CC(=O)O)C(=O)NCC(=O)NC(CC(=O)O)C(=O)NCC(=O)NC(C(C)NC(=O)CN)C(=O)NC(C(C)C)C(=O)N2CCCC2C(=O)NC1C` (stereo not shown) [Compound 279, CH3—(CH2)13—NH—C(═O)-Amphomycin-9-Gly], 0.5 µg/mL.
As to `CCCCCCCCCCCCCCCC(=O)Nc1ccc(CC(=O)NC(CC(=O)O)C(=O)NC2C(=O)N3CCCCC3C(=O)NC(C(C)C(=O)O)C(=O)NC(CC(=O)O)C(=O)NCC(=O)NC(CC(=O)O)C(=O)NCC(=O)NC(C(C)N)C(=O)NC(C(C)C)C(=O)N3CCCC3C(=O)NC2C)cc1` (stereo not drawn) [Compound 281, C16-(p-Apa)-Amphomycin] (Palmitoyl-[X1]D[ξAbu(βξ-NH2)][Pip][ξAsp(βξ-Me)]DGDG[ξAbu(3ξ-NH2)]VP; lactam 3-C; configuration not given here), the MIC worked out at 2 µg/mL.
Turning to `CCCCCCCC(=O)Nc1ccc(C(=O)NC(CC(=O)O)C(=O)NC2C(=O)N3CCCCC3C(=O)NC(C(C)C(=O)O)C(=O)NC(CC(=O)O)C(=O)NCC(=O)NC(CC(=O)O)C(=O)NCC(=O)NC(C(C)N)C(=O)NC(C(C)C)C(=O)N3CCCC3C(=O)NC2C)cc1` (stereo not shown) [Compound 282, C8-PABA-Amphomycin], the MIC was 32 µg/mL.
Under `CCCCCCCCCC(=O)Nc1ccc(C(=O)NC(CC(=O)O)C(=O)NC2C(=O)N3CCCCC3C(=O)NC(C(C)C(=O)O)C(=O)NC(CC(=O)O)C(=O)NCC(=O)NC(CC(=O)O)C(=O)NCC(=O)NC(C(C)N)C(=O)NC(C(C)C)C(=O)N3CCCC3C(=O)NC2C)cc1` (stereo not shown) [Compound 283, C10-PABA-Amphomycin] stands 2 µg/mL; under `CCCCCCCCCCC(=O)Nc1ccc(C(=O)NC(CC(=O)O)C(=O)NC2C(=O)N3CCCCC3C(=O)NC(C(C)C(=O)O)C(=O)NC(CC(=O)O)C(=O)NCC(=O)NC(CC(=O)O)C(=O)NCC(=O)NC(C(C)N)C(=O)NC(C(C)C)C(=O)N3CCCC3C(=O)NC2C)cc1` (stereo not shown) [Compound 284, C11-PABA-Amphomycin], 16 µg/mL; under `CCCCCCCCCCCCC(=O)Nc1ccc(C(=O)NC(CC(=O)O)C(=O)NC2C(=O)N3CCCCC3C(=O)NC(C(C)C(=O)O)C(=O)NC(CC(=O)O)C(=O)NCC(=O)NC(CC(=O)O)C(=O)NCC(=O)NC(C(C)N)C(=O)NC(C(C)C)C(=O)N3CCCC3C(=O)NC2C)cc1` (stereo not shown) [Compound 285, C13-PABA-Amphomycin], 0.25 µg/mL.
The same measure for `CCCCCCCCCCCNC(=O)NCCC(=O)NC(CC(=O)O)C(=O)NC1C(=O)N2CCCCC2C(=O)NC(C(C)C(=O)O)C(=O)NC(CC(=O)O)C(=O)NCC(=O)NC(CC(=O)O)C(=O)NCC(=O)NC(C(C)N)C(=O)NC(C(C)C)C(=O)N2CCCC2C(=O)NC1C` (stereo not drawn) [Compound 286, CH3—(CH2)10—NH—C(═O)-(β-Ala)-Amphomycin]: 2 µg/mL; for `CCCCCCCCCCCCCCNC(=O)NCCCC(=O)NC(CC(=O)O)C(=O)NC1C(=O)N2CCCCC2C(=O)NC(C(C)C(=O)O)C(=O)NC(CC(=O)O)C(=O)NCC(=O)NC(CC(=O)O)C(=O)NCC(=O)NC(C(C)N)C(=O)NC(C(C)C)C(=O)N2CCCC2C(=O)NC1C` (stereo not shown) [Compound 291, CH3—(CH2)13—NH—C(═O)-(GABA)-Amphomycin]: 2 µg/mL; for `CCCCCCCCCC(=O)Nc1cccc(C(=O)NC(CC(=O)O)C(=O)NC2C(=O)N3CCCCC3C(=O)NC(C(C)C(=O)O)C(=O)NC(CC(=O)O)C(=O)NCC(=O)NC(CC(=O)O)C(=O)NCC(=O)NC(C(C)N)C(=O)NC(C(C)C)C(=O)N3CCCC3C(=O)NC2C)c1` (stereo not drawn) [Compound 293, C10-(M-Aminobenzoyl)-Amphomycin] ({Decanoyl-3Abz}-D[ξAbu(βξ-NH2)][Pip][ξAsp(βξ-Me)]DGDG[ξAbu(3ξ-NH2)]VP; lactam 2-C; configuration not given here): 2 µg/mL.
The same measure for `CCCCCCCCCCC(=O)Nc1cccc(C(=O)NC(CC(=O)O)C(=O)NC2C(=O)N3CCCCC3C(=O)NC(C(C)C(=O)O)C(=O)NC(CC(=O)O)C(=O)NCC(=O)NC(CC(=O)O)C(=O)NCC(=O)NC(C(C)N)C(=O)NC(C(C)C)C(=O)N3CCCC3C(=O)NC2C)c1` (stereo not drawn) [Compound 294, C11-(M-Aminobenzoyl)-Amphomycin] ({Undecanoyl-3Abz}-D[ξAbu(βξ-NH2)][Pip][ξAsp(βξ-Me)]DGDG[ξAbu(3ξ-NH2)]VP; lactam 2-C; configuration not given here): 0.5 µg/mL; for `CCCCCCCCCCCCCCNC(=O)NCCC(=O)NC(CC(=O)O)C(=O)NC1C(=O)N2CCCCC2C(=O)NC(C(C)C(=O)O)C(=O)NC(CC(=O)O)C(=O)NCC(=O)NC(CC(=O)O)C(=O)NCC(=O)NC(C(C)N)C(=O)NC(C(C)C)C(=O)N2CCCC2C(=O)NC1C` (stereo not drawn) [Compound 295, CH3—(CH2)13—NH—C(═O)-(β-Ala)-Amphomycin]: 0.5 µg/mL.
Consider `CCCCCCCCCCCC(=O)Nc1cccc(C(=O)NC(CC(=O)O)C(=O)NC2C(=O)N3CCCCC3C(=O)NC(C(C)C(=O)O)C(=O)NC(CC(=O)O)C(=O)NCC(=O)NC(CC(=O)O)C(=O)NCC(=O)NC(C(C)N)C(=O)NC(C(C)C)C(=O)N3CCCC3C(=O)NC2C)c1` (stereo not drawn) [Compound 296, C12-(M-Aminobenzoyl)-Amphomycin] ({Lauroyl-3Abz}-D[ξAbu(βξ-NH2)][Pip][ξAsp(βξ-Me)]DGDG[ξAbu(3ξ-NH2)]VP; lactam 2-C; configuration not given here), for which the MIC was found to be 0.25 µg/mL.
